Experimental data: PubChem BioAssay AID330 (DTP/NCI, 2004)
Where “and” joins values, the source holds several entries; their conditions need not be identical. Equal values may be shown once. Toxic doses and inconclusive results are not listed. How the source made its calls: active means survival T/C of 150% or more; inactive means T/C below 125% in these data.

Tested on: P388 leukemia ip, CD2F1 mice, survival T/C
Experiment: NCI In Vivo Anticancer Drug Screen. Data for tumor model P388 Leukemia (intraperitoneal) in CD2F1 (CDF1) mice
Conditions: endpoint: median survival time, higher = longer survival
In short: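 Mice carrying the transplanted tumor received test compound or vehicle. Survival was recorded in each group, and the value is the treated-group measurement divided by that of the vehicle-treated control group.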

[1] = dose: 50.0 mg/kg/injection, schedule: Q01DX009 (ip), vehicle: saline with Tween-80
[2] = dose: 100.0 mg/kg/injection, schedule: Q01DX009 (ip), vehicle: saline with Tween-80
[3] = dose: 200.0 mg/kg/injection, schedule: Q01DX009 (ip), vehicle: saline with Tween-80

Measured: T/C

O=C(O)c1oc2ccccc2c1C=C(c1ccccc1)c1ccccc1
inactive: [1] 101 % of control | [2] 101 % of control

CCC(=O)Nc1ccc(N)cc1
inactive: dose: 100.0 mg/kg/injection, schedule: Q04DX003 (ip), vehicle: saline 98 % of control | dose: 200.0 mg/kg/injection, schedule: Q04DX003 (ip), vehicle: saline 97 % of control

C=C1CC2(CC3(C(C)C)CC3C2C)OC1=O (centres undefined)
inactive: dose: 100.0 mg/kg/injection, schedule: Q01DX001 (ip), vehicle: saline 100 % of control | dose: 200.0 mg/kg/injection, schedule: Q01DX001 (ip), vehicle: saline 99 % of control | dose: 400.0 mg/kg/injection, schedule: Q01DX001 (ip), vehicle: saline 110 % of control

CC1=CC(=O)C2(OC3OC(C)C(O)C(O)C3O)C=COC(OC3OC(CO)C(O)C(O)C3O)C12 (centres undefined)
inactive: dose: 12.5 mg/kg/injection, schedule: Q01DX005 (ip), vehicle: Klucel (hydroxypropylcellulose) (HPC) 98 % of control | dose: 25.0 mg/kg/injection, schedule: Q01DX005 (ip), vehicle: Klucel (hydroxypropylcellulose) (HPC) 95 % of control | dose: 50.0 mg/kg/injection, schedule: Q01DX005 (ip), vehicle: Klucel (hydroxypropylcellulose) (HPC) 95 % of control | dose: 100.0 mg/kg/injection, schedule: Q01DX005 (ip), vehicle: Klucel (hydroxypropylcellulose) (HPC) 95 % of control | dose: 200.0 mg/kg/injection, schedule: Q01DX005 (ip), vehicle: Klucel (hydroxypropylcellulose) (HPC) 95 % of control

CC(=O)Nc1c([N+](=O)[O-])cc2c3c(cccc13)CC2
inactive: [2] 86 % of control | [3] 90 % of control

C/C(=C\CCCC(/C=C/C=C/CCCCOCc1ccccc1)O[Si](C)(C)C(C)(C)C)CO (centres undefined)
inactive: dose: 50.0 mg/kg/injection, schedule: Q01DX005 (ip), vehicle: saline with Tween-80 102 % of control | dose: 100.0 mg/kg/injection, schedule: Q01DX005 (ip), vehicle: saline with Tween-80 101 % of control | dose: 200.0 mg/kg/injection, schedule: Q01DX005 (ip), vehicle: saline with Tween-80 99 % of control

NC1CCOC1=O (centres undefined)
inactive: dose: 50.0 mg/kg/injection, schedule: Q01DX005 (ip), vehicle: saline 100 % of control | dose: 100.0 mg/kg/injection, schedule: Q01DX005 (ip), vehicle: saline 103 % of control | dose: 200.0 mg/kg/injection, schedule: Q01DX005 (ip), vehicle: saline 100 % of control

CCOC(=O)CC(SCP(=O)(OCC)OCC)C(=O)OCC (centres undefined)
inactive: dose: 60.0 mg/kg/injection, schedule: Q01DX005 (ip), vehicle: saline with Tween-80 101 % of control | dose: 120.0 mg/kg/injection, schedule: Q01DX005 (ip), vehicle: saline with Tween-80 95 % of control | dose: 240.0 mg/kg/injection, schedule: Q01DX005 (ip), vehicle: saline with Tween-80 93 % of control

[N-]=[N+]=NCC1OC(n2cnc3c(=O)[nH]c(N)nc32)C(O)C1O (centres undefined)
inactive: dose: 60.0 mg/kg/injection, schedule: Q01DX005 (ip), vehicle: Klucel (hydroxypropylcellulose) (HPC) 107 % of control | dose: 120.0 mg/kg/injection, schedule: Q01DX005 (ip), vehicle: Klucel (hydroxypropylcellulose) (HPC) 107 % of control | dose: 240.0 mg/kg/injection, schedule: Q01DX005 (ip), vehicle: Klucel (hydroxypropylcellulose) (HPC) 106 % of control

CCc1ccc(NC(=O)NC(=O)c2c(F)cccc2F)cc1
inactive: dose: 25.0 mg/kg/injection, schedule: Q01DX009 (ip), vehicle: saline with Tween-80 114 % of control | dose: 25.0 mg/kg/injection, schedule: Q01DX009 (ip), vehicle: saline 106 % of control | [1] 106 % of control and 116 % of control | dose: 50.0 mg/kg/injection, schedule: Q01DX009 (ip), vehicle: saline 103 % of control and 115 % of control | [2] 100 % of control and 120 % of control | dose: 100.0 mg/kg/injection, schedule: Q01DX009 (ip), vehicle: saline 101 % of control and 98 % of control | [3] 120 % of control and 97 % of control | dose: 200.0 mg/kg/injection, schedule: Q01DX009 (ip), vehicle: saline 100 % of control and 103 % of control
